Data set [1] can be described thus: Inland Silverside embryo-to-larva 12-day exposure bioassay (mortality, dose-response). To be noted: Menidia beryllina (Inland Silverside), in vivo, <24 hpf embryos to 96 hph larvae, nominal concentrations. Here is the method: (§1) Inland Silverside embryos were removed from the spawning substrate, assessed for fertilization with a VWR VistaVision Dissecting Scope (VWR International, Radnor, PA, USA), and randomly placed in exposure wells with 1 mL of clean artificial seawater (ASW) made from reverse osmosis water and Instant Ocean Sea Salt (Spectrum Brands, Blacksburg, VA, USA). Once all well plates (Supplemental Material and Video S1) were loaded, each test was initiated by pouring the appropriate exposure solution into the well plate until embryos were submerged in 8 mL of exposure solution. Organisms were exposed from <24 h post fertilization (hpf) as embryos to 96 h post hatch (hph) larvae for a total exposure period of 12 days. […] After hatching, fish larvae, which still had their yolk sacs, were fed Gemma Microdiet (Skretting, Westbrook, ME, USA) once per day and were allowed to feed for at least two hours prior to water changes. […] Temperature, pH, salinity, and dissolved oxygen were measured daily before and after water changes using a YSI Professional Plus Quatro water quality meter (YSI Incorporated, Yellow Springs, OH, USA) and API Ammonia Test Kit and can be found in Table S1.
(§2) This suite of chosen contaminants represents commonly used pesticides with a range of log KOW values, water solubilities, and target organs. Six concentrations (Table 1), including a solvent control, were assessed per test to determine the appropriate dose–response relationships. Initial test concentrations were determined from existing mortality data from the United State EPA ECOTOX database. Where testing on saltwater species was not available, freshwater data were used to supplement. […] The fourth concentration was selected based off existing mortality data and increased by one magnitude to the fifth concentration to ensure mortality. All lower concentrations were decreased by one subsequent magnitude to ensure an appropriate dose response could be achieved.
(§3) Chemical stock solutions were made at the start of each test from which new exposure solutions were made daily in ASW immediately prior to water changes. There were six replicates per concentration and two organisms per replicate. […] At the end of the exposure period, the final survival data were recorded, and larval fish were humanely sacrificed. Exposures were approved and conducted under the Oregon State University Institutional Animal Care and Use Committee (IACUC) protocol #0035.
(§4) Statistical analysis was conducted in R version 4.0 (Vienna, Austria) and R Studio version 1.3.1093 (Boston, MA, US). The dose–response analysis consisted of fitting two-parameter log-logistic models to all seven compounds at both salinities (14 fits in total) using maximum likelihood optimization in the package drc version 3.0-1 [42]. […] In the Monte Carlo procedure, the salinity treatments for all of the replicates in the dataset were permuted (keeping the sample sizes for each salinity the same), then new dose–response curves were fit to each salinity treatment. The p-value testing whether the observed difference in LC10 and LC50 values was greater than that expected by random chance was calculated as the proportion of Monte Carlo simulations in which the difference in LC values was greater than the original observed difference. […] All values are reported as the mean ± standard error. All statistical analysis and dose–response curves were made and reported with nominal concentrations.

The subject of data set [2] is Inland Silverside (Menidia beryllina). The description is as above. To be noted: <24 hpf embryos to 96 hph larvae, 12 days, nominal concentrations; for 5 PSU LC10: 5 PSU salinity; for 15 PSU LC10: 15 PSU salinity. Here is the method:
as §1, §2, §3, §4

For data set [3] the following is noted: cited from earlier work.
On the set-up of data set [4]: method as in earlier work. As to conditions: cited from earlier work.
Details of data set [5]: method as in PMID 18829159. As to conditions: reported environmental persistence; cited from earlier work.
Data set [6] has as its system Rainbow Trout (Oncorhynchus mykiss). As to conditions: freshwater; 96-h acute; range of minimum to maximum reported LC50 values; ref U.S. EPA ECOTOX database; cited from earlier work.
The conditions of data set [7]: irradiation of a 300 W mercury bulb, cited from earlier work.

By LC50 is commonly meant the concentration that kills 50% of the test population. Low readings indicate greater toxicity, high ones lower toxicity. Broadly, the half-life is the time needed for the level to fall by half in the phase considered.

Values after ≈ are worked out from the molar mass of the structure shown. Read-outs that look alike come from different tables or passages of the source. Some results are limits rather than exact numbers.

For the molecule `CCCC(Cn1cncn1)c1ccc(Cl)cc1Cl` (centres unmarked) [Penconazole, penconazole], the LC50 at 12 days in data set [1] (5 PSU LC50, 5 PSU salinity) was 107 ng/mL (≈ 0.377 µM). The LC50 at 12 days in data set [1] (15 PSU LC50, 15 PSU salinity) came to 20.2 ng/mL (≈ 0.0711 µM). For the same molecule, in data set [2], the “5 PSU LC10” value turned out to be 0.235 ng/mL and the “15 PSU LC10” value was 0.0244 ng/mL. Besides, the “log KOW” value in data set [3] is given as 3.7.

Consider `C[n+]1ccc(-c2cc[n+](C)cc2)cc1` [Paraquat, paraquat dichloride hydrate], for which the “Water Solubility” value in data set [4] was 620000 µg/mL. Besides, the LC50 at 12 days in data set [1] (5 PSU LC50, 5 PSU salinity) worked out at 37500 ng/mL. In addition, in data set [1] (15 PSU LC50, 15 PSU salinity), the LC50 at 12 days was 18100 ng/mL. Further, in data set [2], the “5 PSU LC10” value was 54.7 ng/mL and the “15 PSU LC10” value came out at 24.5 ng/mL. In addition, the “log KOW” value in data set [3] was −4.5. In addition, the environmental half-life entry in data set [5] is reported as “around two”. The “FW LC50” value in data set [6] was 15000 to 38680 ng/mL.

Turning to `CCOP(=S)(OCC)Oc1nc(Cl)c(Cl)cc1Cl` [Chlorpyrifos, chlorpyrifos], the 50% lethal concentration (LC50) at 12 days in data set [1] (5 PSU LC50, 5 PSU salinity) worked out at 8.03 ng/mL (≈ 0.0229 µM). The LC50 at 12 days in data set [1] (15 PSU LC50, 15 PSU salinity) worked out at 2.4 ng/mL (≈ 0.00685 µM). In data set [2], the “5 PSU LC10” value was found to be 0.137 ng/mL and the “15 PSU LC10” value came to 0.0393 ng/mL. The “log KOW” value in data set [3] is 4.7. The “FW LC50” value in data set [6] is under 1 to 301 ng/mL.

With `Cc1c(COC(=O)[C@@H]2[C@H](/C=C(\Cl)C(F)(F)F)C2(C)C)cccc1-c1ccccc1` (racemic) [Bifenthrin, bifenthrin], in data set [4], the “Water Solubility” value is 0.1 µg/mL. The molecule also had an LC50 at 12 days in data set [1] (5 PSU LC50, 5 PSU salinity) of 0.16 ng/mL (≈ 0.000378 µM). Also, the LC50 at 12 days in data set [1] (15 PSU LC50, 15 PSU salinity) was 0.12 ng/mL (≈ 0.000284 µM). In data set [2], the “5 PSU LC10” value was 0.0227 ng/mL and the “15 PSU LC10” value amounted to 0.00533 ng/mL. Moreover, the “log KOW” value in data set [3] is recorded as 6.6. Besides, the “FW LC50” value in data set [6] was 0.15 to 14.7 ng/mL.

On to `CC(C)(C)C(=O)C(Oc1ccc(Cl)cc1)n1cncn1` (centres unmarked) [Triadimefon, triadimefon], for which, in data set [4], the “Water Solubility” value was 64 µg/mL. Besides, the “log KOW” value in data set [3] was 3.2. Also, the half-life in data set [7] (distilled water) was 0.9 h; in data set [7] (seawater), 2.97 h.

Turning to `Nc1c(Cl)cc([N+](=O)[O-])cc1Cl` [Dicloran, dicloran], the “Water Solubility” value in data set [4] is 6.3 µg/mL. Further, in data set [3], the “log KOW” value is listed as 2.8.

With `CCCCC(C#N)(Cn1cncn1)c1ccc(Cl)cc1` (centres unmarked) [Myclobutanil, myclobutanil], in data set [4], the “Water Solubility” value was 132 µg/mL. Besides, the LC50 at 12 days was 3760 ng/mL (≈ 13 µM) in data set [1] (5 PSU LC50, 5 PSU salinity) and 1550 ng/mL (≈ 5.37 µM) in data set [1] (15 PSU LC50, 15 PSU salinity). In data set [3], the “log KOW” value is on record as 2.8. The “FW LC50” value in data set [6] was 4200 to 5270 ng/mL.

Regarding `CC1(C)C(C=C(Cl)Cl)C1C(=O)OCc1cccc(Oc2ccccc2)c1` (centres unmarked) [permethrin], the “log KOW” value in data set [3] (values quoted in discussion of Delta smelt study) was 6.9.
